# Test results taken from patent US6040300A, “Method of preventing colon cancer with vitamin D3 analogues” (Arch Development Corporation, priority 1995, dated 2000).
# “Also recorded” adds a separate entry of the source.
# Key:
# [1] = Serum phosphorus (standard colorimetric method); assay type: in vivo, Male albino Fisher-344 rats; settings: for Serum Levels P: mean ± S.E.M.
# Source text: (§1) Male albino Fisher-344 rats, initially weighing ~90-100 g, were used in these studies. On arrival, the animals were quarantined for 1 wk and then randomly divided into the following six test groups: groups 1 and 2, standard vitamin D-sufficient diet; groups 3 and 4, standard diet supplemented with RO24-5531 (2.50 nmol/kg of feed); and groups 5 and 6, standard vitamin D-sufficient diet. […] Next, the rats in groups 2,4 and 6 were given subcutaneous injections of azoxymethane (AOM, Sigma Chemical Co., St. Louis, Mo.), 15 mg/kg body wt once a wk for 2 wks, while the rats in groups 1,3 and 5 received AOM-vehicle (saline).
# (§2) Groups 1 and 2 were then maintained on the standard diet for an additional […]. Groups 3 and 4 were maintained on the RO24-5531 supplemented diets for the initial five wks and then switched to the standard diet without RO24-5531 for an additional 29 wks (initiation arm), whereas groups 5 and 6 were maintained on the standard diet without supplemental RO24-5531 for the initial five wks and then switched to the RO24-5531 supplemented diet for an additional 29 wks (post-initiation arm).
# (§3) All rats were sacrificed in the non-fasting state after 34 wks on these protocols between 9 a.m. and 11 a.m. and sera obtained for measurement of calcium, phosphate, 25(OH)D3 and 1α,25(OH)2 D3 levels. The rats' colons were removed, opened, washed with normal saline and examined macroscopically for the presence of tumors. Resected tumors were weighed, and were fixed in 10% buffered formalin for microscopic examination. After formalin fixation, tissue specimens were paraffin-embedded, sectioned, and stained with hematoxylin and eosin as described previously (Sitrin et al., 1991), for light microscopic examination. All specimens were evaluated by a pathologist who was unaware of the dietary or AOM treatment history. Macroscopic and microscopic lesions were classified as either benign (adenoma) or malignant (adenocarcinoma).
# (§4) Serum calcium and phosphorus were measured by standard colorimetric methods (Kessler and Wolfman, Clin. Chem. 10:686-703, 1964). Serum 25(OH)D3 levels were measured by radioimmunoassay, using a kit and procedure supplied by Incstar (Stillwater, Minn.). Serum 1α,25(OH)2 D3 levels were assayed by a non-equilibrium competitive protein-binding assay based on a calf thymus receptor, using a kit and procedure supplied by Incstar, as previously described (Sitrin et al., 1991).
# (§5) Results are expressed as means ±SE of n determinations. Data were analyzed by Fisher's exact test (two-tailed) or analysis of variance (ANOVA) as appropriate (Snedecor and Cochran, Statistical Methods, 1980). Values of p <0.05 were considered statistically significant.
# [2] = Serum 1α,25(OH)2 D3 levels (competitive protein-binding assay, calf thymus receptor); assay type: in vivo, Male albino Fisher-344 rats; settings: all test groups
# Source text: as §1, with “(saline). […]” for “(saline).”
# All rats were sacrificed in the non-fasting state after 34 wks on these protocols between 9 a.m. and 11 a.m. and sera obtained for measurement of calcium, phosphate, 25(OH)D3 and 1α,25(OH)2 D3 levels. […] All specimens were evaluated by a pathologist who was unaware of the dietary or AOM treatment history. […]
# Serum calcium and phosphorus were measured by standard colorimetric methods (Kessler and Wolfman, Clin. Chem. 10:686-703, 1964). Serum 25(OH)D3 levels were measured by radioimmunoassay, using a kit and procedure supplied by Incstar (Stillwater, Minn.). […]
# Results are expressed as means ±SE of n determinations. Data were analyzed by Fisher's exact test (two-tailed) or analysis of variance (ANOVA) as appropriate (Snedecor and Cochran, Statistical Methods, 1980). […]
# [3] = Serum calcium (standard colorimetric method); assay type: in vivo, Male albino Fisher-344 rats; settings: for hypercalcemia or alterations in serum levels: dietary supplementation, serum phosphorus, 25(OH)D3, 1,25(OH)2D3 also named; for Serum Levels Cas+: mean ± S.E.M.
# Source text: as §1, §2, §3, §4, §5
# c-myc mRNA = settings: HL-60 cells; cited from earlier work
# [4] = tested on: NMU-induced breast cancers; settings: cited from earlier work
# [5] = Body weight / growth and tolerability of the animals; assay type: in vivo; settings: for Final Wt.: mean ± S.E.M.
# Source text: as §1, §2, §3, §5
# HL-60 cells = settings: cited from earlier work
# [6] = tested on: AOM-induced colonic tumors; experiment: AOM-induced colonic tumor formation with dietary RO24-5531; assay type: in vivo, Male albino Fisher-344 rats; settings: for inhibition of development of colonic tumors / colon cancer incidence: AOM model, dietary supplementation
# Protocol: FIG. 2. Study Protocol: Rats (12 each, in groups 1,3 and 5; 20 each, in groups 2,4 and 6) were fed either standard diet without RO24-5531 (open bars), or RO24-5531 supplemented diets (shaded bars) for the initial five weeks of the study. During this period rats were given two weekly subcutaneous injections of either AOM (15 mg/kg body wt/wk) (groups 2,4 or 6), or AOM-vehicle (saline) (groups 1,3, or 5) at the end of weeks 2 and 3 (arrows). At the end of five weeks, rats in groups 1-2 were continued on the standard diet without RO24-5531; groups 3-4 were switched to standard diet without RO24-5531; and groups 5-6 were switched to the RO24-5531 supplemented diet for another 29 weeks.
# RO24-5531 was provided by Hoffmann LaRoche Inc. (Nutley, NJ; EP 580968). All diets were obtained from ICN Biochemicals (Cleveland, Ohio). Prior to pelleting, RO24-5531 or vehicle (0.1% ethanol) were mixed with the standard vitamin D-sufficient diet by ICN Biochemicals. This diet has been described in detail (Sitrin et al., 1991) and contained a normal content of calcium and phosphorus, 0.87% and 0.60%, respectively, with 2.2 IU of vitamin D3 /g of feed.
# as §1, §2, §3, §5
# [7] = breast tumor study; cited from earlier work
# [8] = group 3: RO24-5531/SD, no AOM, n=10
# [9] = listed as 1α,25-dihydroxy-16-ene-23-yne-26,27-hexafluorocholecalciferol
# [10] = group 3: RO24-5531/SD, no AOM, 12 animals
# [11] = group 4: RO24-5531/SD (initiation arm), AOM
# [12] = group 4: RO24-5531/SD (initiation arm), AOM, 20 animals
# [13] = group 4: RO24-5531/SD (initiation arm), AOM, 20 animals, p < 0.05 vs group 2
# [14] = group 5: SD/RO24-5531, no AOM, 12 animals
# [15] = group 6: SD/RO24-5531 (post-initiation arm), AOM
# [16] = group 6: SD/RO24-5531 (post-initiation arm), AOM, 20 animals
compound,measurement,setting,value
"C=C1/C(=C\C=C2/CCC[C@]3(C)C([C@H](C)CC#CC(O)(C(F)(F)F)C(F)(F)F)=CC[C@@H]23)C[C@@H](O)C[C@@H]1O [RO24-5531, 26,26,26,27,27,27-hexafluoro-1α,25-dihydroxy-16-ene-23-yne-cholecalciferol]",Serum Levels P,[1]; [8],10.2 ± 0.7 mg/dL
same,Serum Levels P,"[1]; group 4: RO24-5531/SD (initiation arm), AOM, n=5",9.9 ± 0.8 mg/dL
same,Serum Levels P,"[1]; group 5: SD/RO24-5531, no AOM, n=6",9.2 ± 0.3 mg/dL
same,Serum Levels P,"[1]; group 6: SD/RO24-5531 (post-initiation arm), AOM, n=11",9.0 ± 0.8 mg/dL
same,effect on serum levels of phosphorus,[1]; groups 4 and 6,"significantly altered the serum levels of calcium, phosphorus or 25(OH)D3"
same,"effect on serum 1α,25(OH)2 D3 levels",[2],no differences were observed
same,hypercalcemia or alterations in serum levels,[3],did not result in hypercalcemia
same,hypercalcemia or alterations in serum levels,[3]; [9],"does not induce hypercalcemia or alterations in the serum levels of phosphorus, 25(OH)D3, or 1,25(OH)2D3; also recorded: did not induce hypercalcemia or alterations in the serum levels of phosphorus, 25(OH)D3 or 1,25(OH)2D3"
same,Serum Levels Cas+,[3]; [8],11.3 ± 0.1 mg/dL
same,Serum Levels Cas+,"[3]; group 4: RO24-5531/SD (initiation arm), AOM, n=6",10.1 ± 0.4 mg/dL
same,Serum Levels Cas+,"[3]; group 5: SD/RO24-5531, no AOM, n=14",10.3 ± 0.4 mg/dL
same,Serum Levels Cas+,"[3]; group 6: SD/RO24-5531 (post-initiation arm), AOM, n=8",10.1 ± 0.5 mg/dL
same,effect on serum levels of calcium,[3]; groups 4 (initiation arm) and 6 (post-initiation arm),"significantly altered the serum levels of calcium, phosphorus or 25(OH)D3"
same,c-myc mRNA expression,c-myc mRNA,decrease c-myc mRNA expression in HL-60 cells
same,protection against NMU-induced breast cancers,[4]; fed after administration of carcinogen,protected against the development of NMU-induced breast cancers
same,breast tumor incidence,[4]; in vivo,lessened tumor incidence
same,breast tumor latency,[4]; in vivo,extended breast tumor latency
same,breast tumor number,[4]; in vivo,lessened tumor incidence as well as tumor number
same,influence on growth of the animals,"[5]; RO24-5531 supplemental dietary regimens, all groups","neither the RO24-5531 supplemental dietary regimens, nor the administration of carcinogen influenced the growth of the animals"
same,tolerability,[5]; dietary supplementation,well-tolerated by the animals
same,Final Wt.,"[5]; group 3: RO24-5531 2.50 nmol/kg of feed for initial five wks, then SD, no AOM",470 ± 20 g
same,Final Wt.,"[5]; group 4: RO24-5531/SD (initiation arm), AOM treated",465 ± 16 g
same,Final Wt.,"[5]; group 5: SD/RO24-5531 (supplement for last 29 wks), no AOM",511 ± 30 g
same,Final Wt.,"[5]; group 6: SD/RO24-5531 (post-initiation arm), AOM treated",499 ± 28 g
same,induction of differentiation,HL-60 cells,induction of differentiation
same,inhibition of proliferation,HL-60 cells,inhibit proliferation of HL-60 cells; also recorded: inhibition of proliferation
same,inhibition of development of colonic tumors / colon cancer incidence,"[6]; listed as 1α, 25-Dihydroxy-16-ene-23-yne-26, 27-hexafluorocholecalciferol",reduced the incidence of colon cancer in rats
same,inhibition of development of colonic tumors / colon cancer incidence,[6]; [9],can inhibit the development of colonic tumors in mammals; also recorded: can inhibit the development of colonic tumors in the AOM model
same,development of tumors,"[6]; AOM-vehicle, RO24-5531 supplemented diets (groups 3, 5)",None of the control animals given injections of the AOM-vehicle and fed either the standard or RO24-5531 supplemented diets developed tumors
same,Tumors/Tumor Bearing rat,"[6]; group 3: RO24-5531/SD, no AOM",0
same,No. of Tumor-Bearing Rats,[6]; [10],0
same,"No. of Tumors, Benign No.",[6]; [10],0
same,"No. of Tumors, Malignant No.",[6]; [10],0
same,"No. of Tumors, Total No.",[6]; [10],0
same,incidence of colonic tumors vs group 2,"[6]; group 4, initiation arm",significant decreases in the incidence of colonic tumors
same,tumor type,"[6]; group 4, initiation arm","all of the colonic tumors in group 4 (initiation arm) were found to be benign, i.e., adenomas"
same,Tumor Wt.,[6]; [11],102 ± 28 mg
same,Tumors/Tumor Bearing rat,[6]; [11],1.0
same,"No. of Tumors, Benign No.",[6]; [12],3
same,"No. of Tumors, Malignant No.",[6]; [12],0
same,No. of Tumor-Bearing Rats,[6]; [13],3
same,"No. of Tumors, Total No.",[6]; [13],3
same,Tumor-Bearing Rats (% of Incidence),"[6]; group 4: RO24-5531/SD (initiation arm), AOM, p < 0.05 vs group 2 (50%)",15%
same,Tumors/Tumor Bearing rat,"[6]; group 5: SD/RO24-5531, no AOM",0
same,No. of Tumor-Bearing Rats,[6]; [14],0
same,"No. of Tumors, Benign No.",[6]; [14],0
same,"No. of Tumors, Malignant No.",[6]; [14],0
same,"No. of Tumors, Total No.",[6]; [14],0
same,tumor type,"[6]; group 6, post-initiation arm",all of the colonic tumors were found to be adenomas
same,number of tumors vs AOM alone animals,"[6]; group 6, post-initiation arm, p >0.05",a trend for a decrease in the number of tumors; also recorded: did not reach statistical significance
same,Tumor Wt.,[6]; [15],109 mg
same,Tumors/Tumor Bearing rat,[6]; [15],1.0
same,No. of Tumor-Bearing Rats,[6]; [16],6
same,"No. of Tumors, Benign No.",[6]; [16],6
same,"No. of Tumors, Malignant No.",[6]; [16],0
same,"No. of Tumors, Total No.",[6]; [16],6
same,Tumor-Bearing Rats (% of Incidence),"[6]; group 6: SD/RO24-5531 (post-initiation arm), AOM, group 2: 50%",30%
same,AOM-induced adenocarcinomas,"[6]; post-initiation arm, like its initiation arm counterpart",complete absence of AOM-induced adenocarcinomas
same,serum Ca2+ levels,[7],without causing elevated levels of serum Ca^2+
